Test results published in patent US20110015065A1 (priority 2008, published 2011).

What was measured:
Pyricularia oryzae = type: cell-based; details: 10 days after inoculation
Phakopsora pachyrhizi = experiment: Curative control of soybean rust on soy beans caused by Phakopsora pachyrhizi (glasshouse); type: in vivo; details: comparative trial (Use example 7), untreated 100
Procedure: The active compounds were formulated separately or together as a stock solution comprising 25 mg of active compound which was made up to 10 ml using a mixture of acetone and/or dimethyl sulfoxide (DMSO) and the emulsifier Wettol EM 31 (wetting agent having emulsifying and dispersing action based on ethoxylated alkylphenols) in a volume ratio of solvent/emulsifier of 99 to 1. This solution was then made up to 100 ml using water. This stock solution was diluted with the solvent/emulsifier/water mixture described to the active compound concentration given below.
Leaves of pot-grown soybean seedlings were inoculated with spores of Phakopsora pachyrhizi. To ensure the success of the artificial inoculation, the plants were transferred to a humid chamber with a relative humidity of about 95% and 23 to 27° C. for 24 h. The next day the plants were sprayed to run-off with an aqueous suspension, containing the concentration of active ingredient or their mixture as described below. The plants were allowed to air-dry. Then the trial plants were cultivated for 14 days in a greenhouse chamber at 23-27° C. and a relative humidity between 60 and 80%. The extent of fungal attack on the leaves was visually assessed as % diseased leaf area.
The spray solutions were prepared as described for “Examples of the action against harmful fungi” (II. B).
The trial was conducted as described for Use example 3.

| Compound | Growth (%) at 31 ppm (Pyricularia oryzae) [%] | Disease level (%) at 250 ppm (Phakopsora pachyrhizi) [%] | Growth (%) at 2 ppm (Pyricularia oryzae) [%] |
| --- | --- | --- | --- |
| Cc1cnccc1CNS(=O)(=O)c1ccc(-c2ccc(Cl)cc2Cl)cc1 | 30 |  |  |
| COc1cc(CNS(=O)(=O)c2ccc(-c3ccc(C(F)(F)F)cc3C(F)(F)F)cc2)ccn1 |  | 100 |  |
| COc1cc(CNS(=O)(=O)c2ccc(-c3ccc(Cl)cc3Cl)cc2)sn1 [I-3] |  |  | 46 |
| COc1cc(CNS(=O)(=O)c2ccc(-c3ccc(C(F)(F)F)cc3C(F)(F)F)cc2)sn1 [I-2] |  | 5 |  |
| COc1cc(CNS(=O)(=O)c2ccc(-c3ccc(Cl)cc3Cl)cc2)ccn1 [Table C) I-76 according to WO06/097489] |  |  | 68 |
| Cn1nccc1CNS(=O)(=O)c1ccc(-c2ccc(Cl)cc2Cl)cc1 [I-46] | 16 |  |  |
